In patent EP4722207A1, “OXOISOINDOLINYL-SUBSTITUTED TETRAHYDROPYRIMIDINEDIONE DERIVATIVE AND USE THEREOF” (Gluetacs Therapeutics (Shanghai) Co., Ltd., priority 2023, dated 2024):

How the values were obtained:
CK1α = target: T1, CK1α (Homo sapiens, UniProt P48729+Q96SW2); test: Western-blot assay, substrate protein degradation in hPBMCs: CK1α; type: cell-based; conditions: for CK1α substrate protein remaining %: compounds at 50 nM and 500 nM, 24 hours; for substrate protein remaining % CK1α: 24 hours of compound treatment, 50 nM and 500 nM
T1 construct: effects of the compounds of the present disclosure on the expression of target proteins in cells; endogenous in cells; host or cells: human PBMCs (hPBMCs)

IKZF2 = target: T2, IKZF2 (Homo sapiens, UniProt Q96SW2+Q9UKS7); test: Western-blot assay, substrate protein degradation in hPBMCs: IKZF2; type: cell-based; conditions: for IKZF2 substrate protein remaining %: compounds at 50 nM and 500 nM, 24 hours; for substrate protein remaining % IKZF2: 24 hours of compound treatment, 50 nM and 500 nM
T2 construct: effects of the compounds of the present disclosure on the expression of target proteins in cells; endogenous in cells; host or cells: human PBMCs (hPBMCs)

WEE1 = target: T3, WEE1 (Homo sapiens, UniProt P30291+Q96SW2); test: Western-blot assay, substrate protein degradation in hPBMCs: WEE1; type: cell-based; conditions: for WEE1 substrate protein remaining %: compounds at 50 nM and 500 nM, 24 hours; for substrate protein remaining % WEE1: 24 hours of compound treatment, 50 nM and 500 nM
T3 construct: effects of the compounds of the present disclosure on the expression of target proteins in cells; endogenous in cells; host or cells: human PBMCs (hPBMCs)

GSPT1 = target: T4, GSPT1 (Homo sapiens, UniProt P15170+Q96SW2); test: Western-blot assay, substrate protein degradation in hPBMCs: GSPT1; type: cell-based; conditions: for GSPT1 substrate protein remaining %: compounds at 50 nM and 500 nM, 24 hours; for substrate protein remaining % GSPT1: 24 hours of compound treatment, 50 nM and 500 nM
T4 construct: effects of the compounds of the present disclosure on the expression of target proteins in cells; endogenous in cells; host or cells: human PBMCs (hPBMCs)

IKZF3 = target: T5, IKZF3 (Homo sapiens, UniProt Q96SW2+Q9UKT9); test: Western-blot assay, substrate protein degradation in hPBMCs: IKZF3; type: cell-based; conditions: for IKZF3 substrate protein remaining %: compounds at 50 nM and 500 nM, 24 hours; for substrate protein remaining % IKZF3: 24 hours of compound treatment, 50 nM and 500 nM
T5 construct: effects of the compounds of the present disclosure on the expression of target proteins in cells; endogenous in cells; host or cells: human PBMCs (hPBMCs)

MM.1S = test: Cell viability assay (CellTiter-Meiluncell Luminescent), tumor cell proliferation, MM.1S; conditions: Homo sapiens, MM1.S, 96 h, read-out: inhibitory activity (IC50, nM) against tumor cells proliferation, MM.1S
IKZF1 = target: T6, IKZF1 (Homo sapiens, UniProt Q13422+Q96SW2); test: Western-blot assay, substrate protein degradation in hPBMCs: IKZF1; type: cell-based; conditions: for IKZF1 substrate protein remaining %: compounds at 50 nM and 500 nM, 24 hours; for substrate protein remaining % IKZF1: 24 hours of compound treatment, 50 nM and 500 nM
T6 construct: effects of the compounds of the present disclosure on the expression of target proteins in cells; endogenous in cells; host or cells: human PBMCs (hPBMCs)

H292 = test: Cell viability assay (CellTiter-Meiluncell Luminescent), tumor cell proliferation, H292; conditions: Homo sapiens, NCI-H292, 96 h; for inhibition at 0.01 µM: read-out: Inhibition Rate at 10 nM (%); for inhibition at 0.5 µM: read-out: Inhibition Rate at 500 nM (%)
Description: (§1) The tumor cells used herein were cultured in a cell culture medium listed in table 2 at 37°C in an incubator with 5% CO2. Prior to experimentation, all cell lines used were correctly identified by STR profiling, and tested negative for mycoplasma contamination using a mycoplasma detection kit through routine screenings.
(§2) On the following day, the test compounds of the present disclosure were subjected to serial dilution. […] Subsequently, 0.5 µL of the test compound dilution was transferred into the 96-well plate containing the cells, with each well containing 100 µL of cell culture medium. […] Into the 96-well plate, the diluted test compounds and corresponding detection reagents were added, resulting in final test compound concentrations of 500 nM and 10 nM, respectively. The experimental procedure is described below using the diluted 2 µM test compound as an example.
(§3) After the cells were treated with the compounds of the present disclosure for a specified period, the cell viability assay reagent was added to the culture medium according to the kit's instructions to determine cell viability. […] All controls were treated using the same procedure as the compounds of the present disclosure. The growth inhibition curves for the compounds of the present disclosure were plotted using Prism GraphPad software, and the IC50 values were calculated therefrom.

MDA-MB-231 = test: Cell viability assay (CellTiter-Meiluncell Luminescent), tumor cell proliferation, MDA-MB-231; conditions: Homo sapiens, MDA-MB-231, 96 h; for inhibition at 0.01 µM: read-out: Inhibition Rate at 10 nM (%); for inhibition at 0.5 µM: read-out: Inhibition Rate at 500 nM (%)
MV-4-11 = test: Cell viability assay (CellTiter-Meiluncell Luminescent), tumor cell proliferation, MV-4-11; conditions: Homo sapiens, MV4-11, 96 h; for inhibition at 0.01 µM: read-out: Inhibition Rate at 10 nM (%); for inhibition at 0.5 µM: read-out: Inhibition Rate at 500 nM (%)
Description: as §1, §2, §3

T4 sequence (P15170 whole entry): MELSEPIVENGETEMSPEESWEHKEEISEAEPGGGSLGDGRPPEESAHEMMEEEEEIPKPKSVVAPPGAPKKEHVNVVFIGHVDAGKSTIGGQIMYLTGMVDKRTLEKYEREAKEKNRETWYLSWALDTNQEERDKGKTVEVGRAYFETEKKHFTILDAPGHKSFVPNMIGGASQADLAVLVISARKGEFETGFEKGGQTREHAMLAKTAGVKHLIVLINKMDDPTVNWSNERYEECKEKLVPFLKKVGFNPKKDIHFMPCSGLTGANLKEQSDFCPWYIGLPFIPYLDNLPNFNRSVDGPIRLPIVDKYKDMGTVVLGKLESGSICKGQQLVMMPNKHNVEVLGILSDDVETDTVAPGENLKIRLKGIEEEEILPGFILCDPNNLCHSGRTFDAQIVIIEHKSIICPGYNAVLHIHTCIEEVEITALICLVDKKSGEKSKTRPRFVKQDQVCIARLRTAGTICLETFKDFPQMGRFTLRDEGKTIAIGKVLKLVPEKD
T4 sequence (Q96SW2 whole entry): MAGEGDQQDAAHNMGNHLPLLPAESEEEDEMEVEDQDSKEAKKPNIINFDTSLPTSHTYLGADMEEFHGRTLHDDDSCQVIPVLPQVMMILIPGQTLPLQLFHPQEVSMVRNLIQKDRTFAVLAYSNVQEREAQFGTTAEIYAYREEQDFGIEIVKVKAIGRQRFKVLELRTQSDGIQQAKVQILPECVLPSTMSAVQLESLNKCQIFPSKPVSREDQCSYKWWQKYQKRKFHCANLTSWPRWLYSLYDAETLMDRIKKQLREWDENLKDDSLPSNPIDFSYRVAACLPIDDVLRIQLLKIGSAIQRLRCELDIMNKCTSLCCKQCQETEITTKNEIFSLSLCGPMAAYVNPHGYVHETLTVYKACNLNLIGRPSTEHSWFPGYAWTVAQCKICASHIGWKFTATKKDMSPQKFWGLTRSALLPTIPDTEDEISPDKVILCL
T4 sequence (Q16531 whole entry partner): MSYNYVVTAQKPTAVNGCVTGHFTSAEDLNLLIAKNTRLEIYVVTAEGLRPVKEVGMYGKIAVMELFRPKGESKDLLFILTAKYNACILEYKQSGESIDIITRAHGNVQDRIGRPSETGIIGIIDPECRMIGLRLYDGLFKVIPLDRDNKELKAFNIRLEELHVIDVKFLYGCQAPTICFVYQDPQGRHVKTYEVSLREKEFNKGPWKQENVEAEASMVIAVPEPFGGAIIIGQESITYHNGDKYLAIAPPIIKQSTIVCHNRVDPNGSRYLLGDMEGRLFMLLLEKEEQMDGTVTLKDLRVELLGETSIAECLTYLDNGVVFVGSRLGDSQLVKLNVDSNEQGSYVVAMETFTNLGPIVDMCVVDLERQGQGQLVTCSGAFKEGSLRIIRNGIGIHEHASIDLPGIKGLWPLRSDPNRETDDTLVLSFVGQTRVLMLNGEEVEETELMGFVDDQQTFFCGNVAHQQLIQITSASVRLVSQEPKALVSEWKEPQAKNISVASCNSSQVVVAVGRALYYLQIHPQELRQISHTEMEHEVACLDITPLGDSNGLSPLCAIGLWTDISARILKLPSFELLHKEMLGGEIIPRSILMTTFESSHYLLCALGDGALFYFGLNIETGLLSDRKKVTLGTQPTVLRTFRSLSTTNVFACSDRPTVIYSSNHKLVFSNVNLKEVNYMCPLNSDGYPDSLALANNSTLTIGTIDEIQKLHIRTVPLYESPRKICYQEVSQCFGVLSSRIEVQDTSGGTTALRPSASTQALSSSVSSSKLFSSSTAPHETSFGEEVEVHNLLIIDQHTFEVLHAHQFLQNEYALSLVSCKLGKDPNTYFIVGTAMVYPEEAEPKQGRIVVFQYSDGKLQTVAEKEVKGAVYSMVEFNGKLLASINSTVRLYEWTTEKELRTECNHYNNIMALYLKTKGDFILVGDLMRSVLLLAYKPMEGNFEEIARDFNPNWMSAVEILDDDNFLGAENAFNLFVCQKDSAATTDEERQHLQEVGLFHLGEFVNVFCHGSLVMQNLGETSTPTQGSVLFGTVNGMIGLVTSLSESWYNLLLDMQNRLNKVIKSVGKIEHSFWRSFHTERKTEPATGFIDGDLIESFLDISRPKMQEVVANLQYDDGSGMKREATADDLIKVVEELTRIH
T1 sequence (P48729 whole entry): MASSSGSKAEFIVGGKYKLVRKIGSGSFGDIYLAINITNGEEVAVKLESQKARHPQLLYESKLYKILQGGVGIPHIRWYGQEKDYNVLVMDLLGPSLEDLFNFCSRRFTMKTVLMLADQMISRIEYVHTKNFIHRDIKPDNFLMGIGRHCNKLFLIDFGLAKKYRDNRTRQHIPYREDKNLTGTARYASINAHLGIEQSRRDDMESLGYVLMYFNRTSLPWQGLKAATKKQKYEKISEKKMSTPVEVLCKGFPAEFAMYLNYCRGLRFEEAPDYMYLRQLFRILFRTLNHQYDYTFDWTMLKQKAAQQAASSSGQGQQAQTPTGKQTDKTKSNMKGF
T1 sequence (Q96SW2 whole entry): as the sequence (Q96SW2 whole entry) above
T1 sequence (Q16531 whole entry partner): as the sequence (Q16531 whole entry partner) above
T3 sequence (P30291 whole entry): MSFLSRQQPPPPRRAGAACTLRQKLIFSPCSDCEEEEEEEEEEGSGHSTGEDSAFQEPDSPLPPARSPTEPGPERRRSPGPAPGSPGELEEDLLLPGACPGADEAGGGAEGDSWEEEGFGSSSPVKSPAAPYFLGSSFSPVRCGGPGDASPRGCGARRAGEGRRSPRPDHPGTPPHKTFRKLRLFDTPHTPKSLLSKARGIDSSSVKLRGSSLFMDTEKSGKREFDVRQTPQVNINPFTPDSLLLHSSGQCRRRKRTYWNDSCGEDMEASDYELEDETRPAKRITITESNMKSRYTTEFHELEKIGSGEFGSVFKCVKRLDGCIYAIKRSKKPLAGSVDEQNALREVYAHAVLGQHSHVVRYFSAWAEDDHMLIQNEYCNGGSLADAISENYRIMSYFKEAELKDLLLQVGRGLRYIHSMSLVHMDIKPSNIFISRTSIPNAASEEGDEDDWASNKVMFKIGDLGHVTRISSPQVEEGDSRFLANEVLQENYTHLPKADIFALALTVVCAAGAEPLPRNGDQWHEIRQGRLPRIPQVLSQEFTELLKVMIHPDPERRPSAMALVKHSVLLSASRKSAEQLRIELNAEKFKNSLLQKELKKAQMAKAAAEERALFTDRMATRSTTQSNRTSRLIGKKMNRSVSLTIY
T3 sequence (Q96SW2 whole entry): as the sequence (Q96SW2 whole entry) above
T3 sequence (Q16531 whole entry partner): as the sequence (Q16531 whole entry partner) above
T5 sequence (Q9UKT9 whole entry): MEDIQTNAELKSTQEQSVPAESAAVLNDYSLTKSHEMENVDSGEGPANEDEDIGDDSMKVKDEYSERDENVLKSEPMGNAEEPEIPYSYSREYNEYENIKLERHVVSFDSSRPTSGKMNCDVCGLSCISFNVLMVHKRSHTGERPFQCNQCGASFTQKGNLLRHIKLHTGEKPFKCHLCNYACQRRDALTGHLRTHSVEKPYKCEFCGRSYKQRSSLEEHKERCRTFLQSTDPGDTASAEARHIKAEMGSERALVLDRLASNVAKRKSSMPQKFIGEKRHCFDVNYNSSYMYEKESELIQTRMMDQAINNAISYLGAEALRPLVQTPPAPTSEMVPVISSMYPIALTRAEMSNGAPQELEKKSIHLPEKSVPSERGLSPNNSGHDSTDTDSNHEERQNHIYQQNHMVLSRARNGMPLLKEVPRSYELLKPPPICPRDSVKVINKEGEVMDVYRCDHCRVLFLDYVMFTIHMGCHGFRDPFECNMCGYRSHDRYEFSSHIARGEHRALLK
T5 sequence (Q96SW2 whole entry): as the sequence (Q96SW2 whole entry) above
T5 sequence (Q16531 whole entry partner): as the sequence (Q16531 whole entry partner) above
T6 sequence (Q13422 whole entry): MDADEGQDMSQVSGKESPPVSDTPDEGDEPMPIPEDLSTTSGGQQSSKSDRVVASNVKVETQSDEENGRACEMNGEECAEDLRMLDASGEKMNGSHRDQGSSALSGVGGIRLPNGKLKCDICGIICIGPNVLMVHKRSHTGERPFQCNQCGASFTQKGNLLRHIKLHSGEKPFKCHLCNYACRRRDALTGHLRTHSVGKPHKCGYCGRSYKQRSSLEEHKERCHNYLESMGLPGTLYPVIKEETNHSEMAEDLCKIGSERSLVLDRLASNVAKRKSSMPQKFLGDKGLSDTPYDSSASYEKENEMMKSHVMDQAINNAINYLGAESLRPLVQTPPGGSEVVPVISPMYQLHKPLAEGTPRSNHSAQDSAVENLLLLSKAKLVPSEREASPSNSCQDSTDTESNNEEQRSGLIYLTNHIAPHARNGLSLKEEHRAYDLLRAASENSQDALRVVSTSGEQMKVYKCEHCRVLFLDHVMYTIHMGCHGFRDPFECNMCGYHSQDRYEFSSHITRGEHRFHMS
T6 sequence (Q96SW2 whole entry): as the sequence (Q96SW2 whole entry) above
T6 sequence (Q16531 whole entry partner): as the sequence (Q16531 whole entry partner) above

| Compound | CK1α substrate protein remaining % (CK1α) | IKZF2 substrate protein remaining % (IKZF2) | WEE1 substrate protein remaining % (WEE1) | GSPT1 substrate protein remaining % (GSPT1) | IKZF3 substrate protein remaining % (IKZF3) | IC50 (MM.1S) | IKZF1 substrate protein remaining % (IKZF1) | inhibition at 0.01 µM (H292) | inhibition at 0.5 µM (H292) | substrate protein remaining % CK1α (CK1α) | inhibition at 0.01 µM (MDA-MB-231) | inhibition at 0.5 µM (MDA-MB-231) | substrate protein remaining % IKZF2 (IKZF2) | substrate protein remaining % WEE1 (WEE1) | substrate protein remaining % GSPT1 (GSPT1) | inhibition at 0.01 µM (MV-4-11) | inhibition at 0.5 µM (MV-4-11) | substrate protein remaining % IKZF3 (IKZF3) | substrate protein remaining % IKZF1 (IKZF1) |
| --- | --- | --- | --- | --- | --- | --- | --- | --- | --- | --- | --- | --- | --- | --- | --- | --- | --- | --- | --- |
| Cc1ccc(Sc2ccccc2N2CCN(Cc3ccc4c(c3)CN(N3CCC(=O)NC3=O)C4=O)CC2)c(C)c1 [GT-04867, 1-(5-((4-(2-((2,4-dimethylphenyl)thio)phenyl)piperazin-1-yl)methyl)-1-oxoisoindolin-2-yl)dihydropyrimidine-2,4(1H,3H)-dione] | B ("B" is defined as 80%< substrate protein remaining %≤ 100%) | B ("B" is defined as 80%< substrate protein remaining %≤ 100%) | B ("B" is defined as 80%< substrate protein remaining %≤ 100%) | A ("A" is defined as 0% ≤ substrate protein remaining % ≤ 80%) | B ("B" is defined as 80%< substrate protein remaining %≤ 100%) | 500 to 1000 nM | A ("A" is defined as 0% ≤ substrate protein remaining % ≤ 80%) |  |  |  |  |  |  |  |  |  |  |  |  |
| O=C1CCN(N2Cc3cc(CN4CC=C(c5ccoc5)CC4)ccc3C2=O)C(=O)N1 [GT-04875, 1-(5-((4-(furan-3-yl)-3,6-dihydropyridin-1(2H)-yl)methyl)-1-oxoisoindolin-2-yl)dihydropyrimidine-2,4(1H,3H)-dione] | B ("B" is defined as 80%< substrate protein remaining %≤ 100%) | B ("B" is defined as 80%< substrate protein remaining %≤ 100%) | A ("A" is defined as 0% ≤ substrate protein remaining % ≤ 80%) | A ("A" is defined as 0% ≤ substrate protein remaining % ≤ 80%) | B ("B" is defined as 80%< substrate protein remaining %≤ 100%) | 300 to 500 nM | B ("B" is defined as 80%< substrate protein remaining %≤ 100%) |  |  |  |  |  |  |  |  |  |  |  |  |
| O=C1CCN(N2Cc3cc(CN4CCN(c5ncnc6sc(Br)cc56)CC4)ccc3C2=O)C(=O)N1 [GT-08063, 1-(5-((4-(6-bromothieno[2,3-d]pyrimidin-4-yl)piperazin-1-yl)methyl)-1-oxoisoindolin-2-yl)dihydropyrimidine-2,4(1H,3H)-dione] |  |  |  |  |  |  |  | 20 to 40% | 20 to 40% | B (80%< substrate protein remaining %≤ 100%) | 15 to 18% | 15 to 18% | A (0% ≤ substrate protein remaining % ≤ 80%) | B (80%< substrate protein remaining %≤ 100%) | B (80%< substrate protein remaining %≤ 100%) | 18 to 25% | 5 to 10% | A (0% ≤ substrate protein remaining % ≤ 80%) | B (80%< substrate protein remaining %≤ 100%) |
| Cc1nc(C2CCN(Cc3ccc4c(c3)C(=O)N(N3CCC(=O)NC3=O)C4=O)CC2)c2c(-c3ccccc3)csc2n1 [GT-08110, 2-(2,4-dioxotetrahydropyrimidin-1(2H)-yl)-5-((4-(2-methyl-5-phenylthieno[2,3-d]pyrimidin-4-yl)piperidin-1-yl)methyl)isoindoline-1,3-dione] |  |  |  |  |  |  |  | 20 to 40% | 10 to 15% | A (0% ≤ substrate protein remaining % ≤ 80%) | 25 to 40% | 15 to 18% | A (0% ≤ substrate protein remaining % ≤ 80%) | A (0% ≤ substrate protein remaining % ≤ 80%) | A (0% ≤ substrate protein remaining % ≤ 80%) | 10 to 18% | 18 to 25% | A (0% ≤ substrate protein remaining % ≤ 80%) | A (0% ≤ substrate protein remaining % ≤ 80%) |
| NCc1ccc2c(c1)CN(N1CCC(=O)NC1=O)C2=O [GT-08118, 1-(5-(aminomethyl)-1-oxoisoindolin-2-yl)dihydropyrimidine-2,4(1H,3H)-dione] |  |  |  |  |  |  |  | 20 to 40% | 20 to 40% |  | 18 to 25% | 25 to 40% |  |  |  | 40 to 60% | 40 to 60% |  |  |
